The values that follow come from US11939403B2, “Peptide-peptoid scaffolds” (The Regents of the University of California, priority 2020, dated 2024).

SMILES strings stand for the structures. In brackets after ≈: the same amount, converted by molar mass. Where two headings read alike, the source gives them in different places. Marks after values point to notes of the source that are not given here. Square brackets hold non-standard residues; d marks the D form. Peptide text beside a SMILES is read from it. NCyclohexylmethylGly = O=C(O)CNCC1CCCCC1; NMeL = CN[C@@H](CC(C)C)C(=O)O; NEtG = CCNCC(=O)O

Data set [1] can be described thus: PAMPA permeability of pure compounds under sink conditions. Type of data set: in vitro ADME. The following applies: detergents in donor and acceptor wells (sink conditions). As to the method:
PAMPA permeability studies on these six pure compounds were performed initially under the same conditions as those used in the original library screen, using a concentration of 1 μM in the donor well based on the estimated concentration of each compound in the original library. […] Without being bound by theory, it was hypothesized that the pure compounds were precipitating in the donor well or adhering to the walls of the apparatus, and that as mixtures they could act as pseudo-detergents (or mutual blocking agents) to help prevent escape from solution (such as through aggregation or adsorption). Therefore, the PAMPA permeabilities of the pure compounds using detergents in the donor and acceptor wells as “sink” conditions were re-investigated. Using these conditions, the permeability trends were similar to those observed in the Libraries. […] The PAMPA permeabilities of the scaffold A compounds were high (large) across the entire A Log P range, whereas the permeabilities of scaffold B compounds trended upward (greater) along with A Log P.

The conditions of data set [2]: pH 7.4.
Protocol: (§1) For each of these six pure compounds, calculated (atomistic) octanol/water partition coefficient (A Log P), aqueous solubility (Aq. Sol), PAMPA and MDCK permeabilities, experimental octanol/water partition coefficient (Log D (oct/w)), P-gp efflux ratios, microsomal stability, and serum protein binding were determined (Table 1 and FIG. 5).
The target of data set [3] is P-gp (Homo sapiens, UniProt P08183). The following applies: MDCK, 10 μM.
Sequence of P-gp (P08183 whole entry): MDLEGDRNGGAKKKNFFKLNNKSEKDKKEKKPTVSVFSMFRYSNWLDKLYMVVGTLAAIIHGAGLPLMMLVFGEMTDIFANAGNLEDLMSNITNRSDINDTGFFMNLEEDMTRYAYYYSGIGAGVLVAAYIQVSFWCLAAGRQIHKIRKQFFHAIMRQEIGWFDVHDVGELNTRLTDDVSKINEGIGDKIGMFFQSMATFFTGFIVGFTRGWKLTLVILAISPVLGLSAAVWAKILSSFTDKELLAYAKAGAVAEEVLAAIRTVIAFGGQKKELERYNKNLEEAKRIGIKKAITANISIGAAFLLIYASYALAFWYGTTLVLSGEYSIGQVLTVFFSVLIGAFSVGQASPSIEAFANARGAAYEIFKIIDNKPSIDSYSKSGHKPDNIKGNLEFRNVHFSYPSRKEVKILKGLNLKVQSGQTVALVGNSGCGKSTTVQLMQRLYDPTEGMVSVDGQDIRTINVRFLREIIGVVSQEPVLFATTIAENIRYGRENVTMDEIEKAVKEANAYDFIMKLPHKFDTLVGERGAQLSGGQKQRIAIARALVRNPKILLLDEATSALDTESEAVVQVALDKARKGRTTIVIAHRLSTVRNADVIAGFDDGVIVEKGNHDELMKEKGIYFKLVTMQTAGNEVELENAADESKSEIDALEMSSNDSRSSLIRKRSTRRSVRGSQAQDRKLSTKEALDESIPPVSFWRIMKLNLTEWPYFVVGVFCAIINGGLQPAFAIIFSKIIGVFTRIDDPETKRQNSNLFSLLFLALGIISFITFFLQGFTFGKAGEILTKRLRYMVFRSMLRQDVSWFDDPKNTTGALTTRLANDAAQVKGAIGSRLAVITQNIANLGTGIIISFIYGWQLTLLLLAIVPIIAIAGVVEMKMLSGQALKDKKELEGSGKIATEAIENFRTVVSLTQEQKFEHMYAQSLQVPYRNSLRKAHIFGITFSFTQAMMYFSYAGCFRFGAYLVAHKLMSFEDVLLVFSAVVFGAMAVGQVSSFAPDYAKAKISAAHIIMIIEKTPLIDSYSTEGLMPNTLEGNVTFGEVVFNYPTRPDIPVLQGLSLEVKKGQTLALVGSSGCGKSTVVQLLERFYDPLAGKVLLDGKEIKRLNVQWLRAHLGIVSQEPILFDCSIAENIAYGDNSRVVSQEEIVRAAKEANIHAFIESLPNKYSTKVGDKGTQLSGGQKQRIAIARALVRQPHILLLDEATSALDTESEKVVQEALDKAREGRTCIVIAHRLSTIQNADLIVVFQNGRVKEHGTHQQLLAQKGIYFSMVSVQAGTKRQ
Data set [4] is described as follows: Aqueous solubility, Japanese Pharmacopoeia Second Fluid (pH 6.8). Type of data set: physicochemical. The following applies: Japanese Pharmacopoeia Second Fluid, pH 6.8, pure compounds, values in text; read-out: Aqueous solubility.
Protocol: as §1
Data set [5] deals with MDCK cells.
Protocol: Permeabilities were also measured in a Madin-Darby canine kidney (MDCK) permeability assay, in which the passage of the compound through a semipermeable membrane coated with MDCK cells is measured.
Data set [6] is described as follows: physchem. The settings on record: pH 7.4, LogD (oct/w).
Protocol: as §1
Data set [7] is described as follows: Microsomal stability. The following applies: remaining rate after 30 min of incubation with pooled liver microsomes (0.1 mg/mL, rats). The format is in vitro ADME.
Data set [8] can be described thus: Oral bioavailability in mice. The settings on record: mice, oral. Type of data set: in vivo. The source says:
Based on their permeabilities in PAMPA and MDCK cells, the in vivo pharmacokinetics of 5 of these 6 pure compound library members were investigated (B03 was not included in the oral PK study, because of its low (small) PAMPA and MDCK permeabilities). […] To test whether metabolism and efflux were the main factors contributing to the low oral bioavailability (BA), mice were pretreated with either the CYP inhibitor […] (ABT), the P-gp inhibitor elacridar (GF120918), or a combination of both the CYP and P-gp inhibitors. […] Combining the inhibitors also produced oral bioavailabilities that reflected the compounds' relative PAMPA permeabilities.

Data set [9] can be described thus: PAMPA permeability under standard (library screen) conditions. Type of data set: in vitro ADME. The settings on record: pure compounds, donor well concentration 20 μM. An excerpt: Libraries A and B were synthesized separately as mixtures using solid phase split-pool peptide synthesis, incorporating peptoid side chains as primary amines using the submonomer method. (Zuckermann R N et al. Efficient Method for the Preparation of Peptoids [Oligo(N-Substituted Glycines)] by Submonomer Solid-Phase Synthesis. J Am Chem Soc. (1992) 114, 10646-7. doi: DOI 10.1021/ja00052a076. PubMed PMID: WOS:A1992KD71700076.) The libraries were cleaved, cyclized in solution, and roughly purified using solid phase extraction on C18 media. Parallel artificial membrane permeability assays (PAMPA) were used to measure passive permeabilities; PAMPA permeabilities within each library varied parabolically as a function of A Log P (FIG. 2A).
PAMPA permeability studies on these six pure compounds were performed initially under the same conditions as those used in the original library screen, […] of each compound in the original library. […] Without being bound by theory, it was hypothesized that the pure compounds were precipitating in the donor well or adhering to the walls of the apparatus, and that as mixtures they could act as pseudo-detergents (or mutual blocking agents) to help prevent escape from solution (such as through aggregation or adsorption). […]

As to `CCN1CC(=O)N[C@@H](CC(C)C)C(=O)N2CCC[C@@H]2C(=O)N(C)[C@@H](CC(C)C)C(=O)N[C@@H](C)C(=O)N(CC2CCCCC2)CC(=O)N[C@@H](Cc2ccccc2)C(=O)N2CCC[C@@H]2C(=O)N(C)[C@@H](CC(C)C)C(=O)N[C@@H](C)C1=O` [Compound B08] (cyclo([NEtG]L[dP][NMeL]A[NCyclohexylmethylGly]F[dP][NMeL]A)), the Papp in data set [1] (PAMPA, read-out: PAMPA Perm.) was 50 ×10⁻⁶ cm/s. Moreover, the “PAMPA Perm.” value in [1] was more than 50 ×10⁻⁶ cm/s. Also, the “LogD (oct/w)” value in data set [2] is recorded as 4.8. For the same compound, the “P-gp R-value” in data set [3] is reported as 19.2. Also, in [4], the solubility came to 20 µg/mL (≈ 18.4 µM). Moreover, the “MDCK Perm.” value stood at 15 ×10⁻⁶ cm/s in [5] and 15.3 ×10⁻⁶ cm/s in [5] (dog). In addition, the logD in data set [6] was more than 4.8. In addition, in data set [7] (rat), the share remaining at 0.5 h is 53%. Moreover, the “Microsomal Stability” value in data set [7] is 53%. Also, the “Oral bioavailability, no inhib.” value in [8] (no inhibitors) was found to be 6%. Moreover, the “Oral bioavailability, +CYP inhib.” value in data set [8] (pretreatment with 1-aminobenztriazole (CYP inhibitor)) was 148^c %. Further, the “Oral bioavailability, +CYP inhib. +P-gp inhib.” value in data set [8] (pretreatment with 1-aminobenztriazole and GF120918) was 101^c %. In data set [8] (pretreatment with GF120918 (P-gp inhibitor)), the “Oral bioavailability, +P-gp inhib.” value is 13%. Besides, in [8] (mouse, in vivo, po, pretreatment with 1-aminobenztriazole and GF120918, read-out: Oral bioavailability, +CYP inhib. +P-gp inhib.), the bioavailability is more than 100%. For the same compound, in data set [9], the PAMPA membrane transport entry was “some membrane transport was observed”.
